Reference: ChEMBL document CHEMBL4052704, “Optimization of a novel series of potent and orally bioavailable GPR119 agonists” (Bioorg Med Chem Lett, 2017)

How the values were obtained:
[1] = molecular target: T1, Glucose-dependent insulinotropic receptor (Homo sapiens, UniProt Q8TDV5); assay: Agonist activity at human GPR119 expressed in HEK293 cells by luciferase reporter gene assay; assay type: cell-based
T1 sequence (Q8TDV5 whole entry): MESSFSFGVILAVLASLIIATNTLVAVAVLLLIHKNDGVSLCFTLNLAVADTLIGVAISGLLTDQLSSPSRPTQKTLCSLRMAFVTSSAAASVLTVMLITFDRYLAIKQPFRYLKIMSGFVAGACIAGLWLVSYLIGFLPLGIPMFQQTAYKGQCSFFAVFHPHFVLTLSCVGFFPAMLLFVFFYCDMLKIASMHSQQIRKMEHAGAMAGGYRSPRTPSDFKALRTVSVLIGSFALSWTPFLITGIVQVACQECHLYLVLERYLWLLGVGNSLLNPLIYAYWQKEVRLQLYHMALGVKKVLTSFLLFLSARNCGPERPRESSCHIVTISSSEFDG

[2] = Clearance in mouse liver microsomes; assay type: ADME, microsome; conditions: read-out: CLH
[3] = Clearance in human liver microsomes; assay type: ADME, microsome; conditions: read-out: CLH
[4] = molecular target: T2, Glucose-dependent insulinotropic receptor (Homo sapiens) (UniProt Q8TDV5); assay: Agonist activity at human GPR119 expressed in CHOK1 cells co-expressing CRE-luciferase incubated for 4 hrs by luciferase reporter gene assay relative to 100 nM AR231453; assay type: functional, cell-based
T2 sequence (whole entry): T1 sequence (Q8TDV5 whole entry)

[5] = molecular target: T1, Glucose-dependent insulinotropic receptor; assay: Agonist activity at human GPR119 expressed in CHOK1 cells co-expressing CRE-luciferase incubated for 4 hrs by luciferase reporter gene assay; assay type: functional, cell-based
[6] = tested on: Mus musculus; assay: Reduction in blood glucose AUC in C57BL/6N mouse at 30 mg/kg dosed 25 mins before glucose challenge and measured over 120 mins post glucose […] by oral glucose tolerance test; assay type: functional; design: scale not given: the % may be the effect or the level left
[7] = tested on: CHO-K1; assay: Cytotoxicity in CHOK1 cells by CCK8 assay; assay type: cell-based; conditions: Cricetulus griseus
[8] = Oral bioavailability in mouse at 10 mg/kg; assay type: ADME, organism-based; conditions: in vivo
[9] = tested on: Mus musculus; assay: Reduction in blood glucose AUC in C57BL/6N mouse at 10 mg/kg dosed 25 mins before glucose challenge and measured over 120 mins post glucose […] by oral glucose tolerance test; assay type: functional; design: scale not given: the % may be the effect or the level left
[10] = Half life in mouse at 0.5 mg/kg, iv; assay type: ADME, organism-based; conditions: in vivo
[11] = Volume of distribution at steady state in mouse at 0.5 mg/kg, iv; assay type: ADME, organism-based; conditions: in vivo, read-out: Vdss
[12] = Cmax in mouse at 10 mg/kg, po; assay type: ADME, organism-based; design: dose 10 mg/kg, route oral; conditions: in vivo
[13] = Plasma clearance in mouse at 0.5 mg/kg, iv; assay type: ADME, organism-based
[14] = AUC in mouse at 10 mg/kg, po; assay type: ADME, organism-based; conditions: in vivo
[15] = Drug metabolism in mouse liver microsomes assessed as CYP450-mediated metabolism of ethyl group; assay type: ADME
[16] = Drug metabolism in human liver microsomes assessed as CYP450-mediated metabolism of ethyl group; assay type: ADME

SMILES | microsomal CLint [2] | microsomal CLint [3] | Emax [4] | EC50 ([5]; read-out: EC50) | further results
CCCc1cnc(N2CCC(n3nnc4c(Nc5ccc(S(C)(=O)=O)cc5F)ncnc43)CC2)nc1 |  |  |  |  | EC50 [1]: 82 nM
Cc1cnc(N2CCC(c3coc4c(N5CCc6cc(S(C)(=O)=O)ccc65)ncnc34)CC2)nc1 | 145 µL/min/mg | 349 µL/min/mg | 159% | 252 nM | 
CS(=O)(=O)c1ccc2c(c1)CCN2c1ncnc2c(C3CCN(c4ncc(F)cn4)CC3)coc12 | 154 µL/min/mg | 257 µL/min/mg | 229% | 201 nM | 
CC(C)(C)OC(=O)N1CCC(c2coc3c(N4c5ccc(S(C)(=O)=O)cc5CC4(C)C)ncnc23)CC1 |  |  |  |  | EC50 [5]: Not Active
CS(=O)(=O)c1ccc2c(c1)CCN2c1ncnc2c(C3CCN(c4ncc(Cl)cn4)CC3)coc12 | 108 µL/min/mg | 113 µL/min/mg | 117% | 42 nM | IC50 [7]: > 10000 nM; bioavailability [8]: 37%; Activity [9]: 33%; half-life [10]: 5.1 h; Vd [11]: 2.3 L/kg; Cmax [12]: 2020 ng/mL; clearance [13]: 6.5 mL/min/kg; AUC [14]: 9390 ng·h/mL
CS(=O)(=O)c1ccc2c(c1)CCN2c1ncnc2c(C3CCN(c4ncccn4)CC3)coc12 |  |  | 196% | 512 nM | 
CC(C)(C)OC(=O)N1CCC(n2nnc3c(Nc4ccc(S(C)(=O)=O)cc4F)ncnc32)CC1 |  |  |  |  | EC50 [1]: 19 nM
CS(=O)(=O)c1ccc2c(c1)CCN2c1ncnc2c(C3CCN(c4ncc(O)cn4)CC3)coc12 | 107 µL/min/mg | 132 µL/min/mg | 145% | 391 nM | 
CC(C)(C)OC(=O)N1CCC(c2coc3c(N4CC(C)(C)c5cc(S(C)(=O)=O)ccc54)ncnc23)CC1 |  |  |  |  | EC50 [5]: Not Active
CC(O)c1cnc(N2CCC(c3coc4c(N5CCc6cc(S(C)(=O)=O)ccc65)ncnc34)CC2)nc1 (configuration not stated) | 66 µL/min/mg | 102 µL/min/mg | 33% | 586 nM | 
COc1cnc(N2CCC(c3coc4c(N5CCc6cc(S(C)(=O)=O)ccc65)ncnc34)CC2)nc1 | 189 µL/min/mg | 255 µL/min/mg | 186% | 310 nM | 
CC(=O)c1cnc(N2CCC(c3coc4c(N5CCc6cc(S(C)(=O)=O)ccc65)ncnc34)CC2)nc1 | 154 µL/min/mg | 74 µL/min/mg | 12% | 78 nM | 
CCc1cnc(N2CCC(c3coc4c(N5CCc6cc(S(C)(=O)=O)ccc65)ncnc34)CC2)nc1 | 187 µL/min/mg | 412 µL/min/mg | 154% | 41 nM | Drug metabolism [15]: Metabolite_Detected; Drug metabolism [16]: Metabolite_Detected

Second part, led by results:

microsomal CLint [2] | microsomal CLint [3] | Emax [4] | EC50 ([5]; read-out: EC50) | SMILES | further results
 |  | 1% | 793 nM | CC(C)(C)OC(=O)N1CCC(c2coc3c(N4CCCc5cc(S(C)(=O)=O)ccc54)ncnc23)CC1 | 
 |  | 137% | 353 nM | CC(C)(C)OC(=O)N1CCC(c2noc3c(Nc4ccc(S(C)(=O)=O)cc4F)ncnc23)CC1 | 
 |  | 123% | 129 nM | CC(C)(C)OC(=O)N1CCC(c2coc3c(Nc4ccc(S(C)(=O)=O)cc4F)ncnc23)CC1 | Activity [6]: 13%
 |  | 82% | 79 nM | CC(C)(C)OC(=O)N1CCC(c2csc3c(Nc4ccc(S(C)(=O)=O)cc4F)ncnc23)CC1 | 
 |  | 3% | > 1000 nM | Cn1cc(C2CCN(C(=O)OC(C)(C)C)CC2)c2ncnc(Nc3ccc(S(C)(=O)=O)cc3F)c21 | 
 |  | 6% | > 1000 nM | CN(c1ccc(S(C)(=O)=O)cc1F)c1ncnc2c(C3CCN(C(=O)OC(C)(C)C)CC3)coc12 | 
508 µL/min/mg | 550 µL/min/mg | 123% | 53 nM | CC(C)(C)OC(=O)N1CCC(c2coc3c(N4CCc5cc(S(C)(=O)=O)ccc54)ncnc23)CC1 | 
 |  | 9% | > 1000 nM | CC(C)(C)OC(=O)N1CCC(c2c[nH]c3c(Nc4ccc(S(C)(=O)=O)cc4F)ncnc23)CC1 | 
